Read-outs that look alike come from different tables or passages of the source.
Tests used:
[1] = system: 229E human corona virus (hCoV); assay: 229E live virus assay (CPE, ATPlite readout in MRC-5 cells); type: cell-based, hCoV-229E; conditions: Human coronavirus 229E, MRC5, 144 h, MOI 0.05, 6 days at 34° C., run in duplicate
SARS-CoV-2 3CL-protease = SARS-CoV-2 3CL-protease (Severe acute respiratory syndrome coronavirus 2, UniProt P0DTD1); assay: SARS-CoV-2 3C-like (3CL) protease fluorescence assay (FRET); type: biochemical; conditions: 30 min preincubation, run in duplicate
[2] = recombinant SARS-CoV-2 3CL-protease 10 nM, read-out: FRET IC50

Row | Structure (SMILES) | EC50 [1] [nM] | IC50 (SARS-CoV-2 3CL-protease; [2]) [nM] | IC50 (SARS-CoV-2 3CL-protease; FRET IC50, recombinant SARS-CoV-2 3CL-protease 10 nM) [nM]
1 | CC(C)C[C@@H](C(=O)N1C[C@]2(C[C@H]1C#N)C(=O)Nc1ccccc12)N(C)C(=O)C(=O)Nc1ccc(F)cc1F [Example 1] | < 100 | – | –
2 | N#C[C@@H]1C[C@@]2(CN1C(=O)[C@H](CC1CC1)NC(=O)C(=O)NC1(c3ccc(F)cc3F)CC1)C(=O)Nc1ccccc12 [Example 74] | < 100 | < 100 | –
3 | CCCC[C@H](NC(=O)C(=O)Nc1ccc(F)cc1C(F)(F)F)C(=O)N1C[C@]2(C[C@H]1C#N)C(=O)Nc1ccccc12 [Example 75] | < 100 | < 100 | –
4 | CCCC[C@H](NC(=O)C(=O)NC1(c2ccc(F)cc2F)CC1)C(=O)N1C[C@]2(C[C@H]1C#N)C(=O)Nc1ccccc12 [Example 76] | < 100 | < 100 | –
5 | N#C[C@@H]1C[C@@]2(CN1C(=O)[C@H](CC1CC1)NC(=O)C(=O)Nc1ccc(F)cc1C(F)(F)F)C(=O)Nc1ccccc12 [Example 77] | < 100 | < 100 | –
6 | Cc1cccc(C)c1NC(=O)C(=O)N[C@@H](CC(C)(C)C)C(=O)N1C[C@]2(C[C@H]1C#N)C(=O)Nc1ccccc12 [Example 84] | < 100 | < 100 | –
7 | CC(C)(C)C[C@H](NC(=O)C(=O)NC1CCC1)C(=O)N1C[C@]2(C[C@H]1C#N)C(=O)Nc1ccccc12 [Example 87] | < 100 | – | –
8 | CC(C)(C)C[C@H](NC(=O)C(=O)NC(C)(C)C)C(=O)N1C[C@]2(C[C@H]1C#N)C(=O)Nc1ccccc12 [Example 95] | < 100 | – | –
9 | CC(C)(C)C[C@H](NC(=O)C(=O)Nc1ccccc1)C(=O)N1C[C@]2(C[C@H]1C#N)C(=O)Nc1ccccc12 [Example 104] | < 100 | – | –
10 | Cc1ccnc(C)c1NC(=O)C(=O)N[C@@H](CC(C)(C)C)C(=O)N1C[C@]2(C[C@H]1C#N)C(=O)Nc1ccccc12 [Example 152] | – | < 100 | –
11 | CC(C)(C)C[C@H](NC(=O)C(=O)Nc1cc(C(F)(F)F)ccn1)C(=O)N1C[C@]2(C[C@H]1C#N)C(=O)Nc1ccccc12 [Example 153] | – | < 100 | –
12 | CC(C)(C)C[C@H](NC(=O)C(=O)Nc1ccc(C(F)(F)F)cn1)C(=O)N1C[C@]2(C[C@H]1C#N)C(=O)Nc1ccccc12 [Example 154] | – | < 100 | –
13 | CC(C)(C)C[C@H](NC(=O)C(=O)Nc1cccc(C(F)(F)F)n1)C(=O)N1C[C@]2(C[C@H]1C#N)C(=O)Nc1ccccc12 [Example 155] | – | < 100 | –
14 | CC(C)(C)C[C@H](NC(=O)C(=O)Nc1cnccc1C(F)(F)F)C(=O)N1C[C@]2(C[C@H]1C#N)C(=O)Nc1ccccc12 [Example 156] | – | < 100 | –
15 | CC(C)(C)C[C@H](NC(=O)C(=O)Nc1cncc(C(F)(F)F)c1)C(=O)N1C[C@]2(C[C@H]1C#N)C(=O)Nc1ccccc12 [Example 157] | – | < 100 | –
16 | CC(C)(C)C[C@H](NC(=O)C(=O)Nc1ccc(C(F)(F)F)nc1)C(=O)N1C[C@]2(C[C@H]1C#N)C(=O)Nc1ccccc12 [Example 158] | – | < 100 | –
17 | CC(C)(C)C[C@H](NC(=O)C(=O)Nc1cccnc1C(F)(F)F)C(=O)N1C[C@]2(C[C@H]1C#N)C(=O)Nc1ccccc12 [Example 162] | – | < 100 | –
18 | Cc1cccc(NC(=O)C(=O)N[C@@H](CC(C)(C)C)C(=O)N2C[C@]3(C[C@H]2C#N)C(=O)Nc2ccccc23)n1 [Example 163] | – | < 100 | –
19 | CC(C)(C)C[C@H](NC(=O)C(=O)NC1(C)CCC1)C(=O)N1C[C@]2(C[C@H]1C#N)C(=O)Nc1ccccc12 [Example 164] | – | < 100 | –
20 | CC(C)(C)C[C@H](NC(=O)C(=O)N[C@@H]1CC2CC[C@H](C2)C1)C(=O)N1C[C@]2(C[C@H]1C#N)C(=O)Nc1ccccc12 [Example 165] | – | < 100 | –
21 | CC(C)(C)C[C@H](NC(=O)C(=O)Nc1ccc(C(F)(F)F)cc1C(F)(F)F)C(=O)N1C[C@]2(C[C@H]1C#N)C(=O)Nc1ccccc12 [Example 166] | – | < 100 | –
22 | N#C[C@@H]1C[C@@]2(CN1C(=O)[C@H](CC1CC1)NC(=O)C(=O)Nc1ncccc1C(F)(F)F)C(=O)Nc1ccccc12 [Example 167] | – | < 100 | –
23 | N#C[C@@H]1C[C@@]2(CN1C(=O)[C@H](CC1CC1)NC(=O)C(=O)Nc1cc(C(F)(F)F)ccn1)C(=O)Nc1ccccc12 [Example 168] | – | < 100 | –
24 | N#C[C@@H]1C[C@@]2(CN1C(=O)[C@H](CC1CC1)NC(=O)C(=O)Nc1ccc(C(F)(F)F)cn1)C(=O)Nc1ccccc12 [Example 169] | – | < 100 | –
25 | N#C[C@@H]1C[C@@]2(CN1C(=O)[C@H](CC1CC1)NC(=O)C(=O)Nc1cccc(C(F)(F)F)n1)C(=O)Nc1ccccc12 [Example 170] | – | < 100 | –
26 | N#C[C@@H]1C[C@@]2(CN1C(=O)[C@H](CC1CC1)NC(=O)C(=O)Nc1ccncc1C(F)(F)F)C(=O)Nc1ccccc12 [Example 171] | – | < 100 | –

Row | Structure (SMILES) | EC50 [1] [nM] | IC50 (SARS-CoV-2 3CL-protease; [2]) [nM] | IC50 (SARS-CoV-2 3CL-protease; FRET IC50, recombinant SARS-CoV-2 3CL-protease 10 nM) [nM]
27 | N#C[C@@H]1C[C@@]2(CN1C(=O)[C@H](CC1CC1)NC(=O)C(=O)Nc1cnccc1C(F)(F)F)C(=O)Nc1ccccc12 [Example 172] | – | < 100 | –
28 | N#C[C@@H]1C[C@@]2(CN1C(=O)[C@H](CC1CC1)NC(=O)C(=O)Nc1cncc(C(F)(F)F)c1)C(=O)Nc1ccccc12 [Example 173] | – | < 100 | –
29 | N#C[C@@H]1C[C@@]2(CN1C(=O)[C@H](CC1CC1)NC(=O)C(=O)Nc1ccc(C(F)(F)F)nc1)C(=O)Nc1ccccc12 [Example 174] | – | < 100 | –
30 | N#C[C@@H]1C[C@@]2(CN1C(=O)[C@H](CC1CC1)NC(=O)C(=O)Nc1cccnc1C(F)(F)F)C(=O)Nc1ccccc12 [Example 175] | – | < 100 | –
31 | N#C[C@@H]1C[C@@]2(CN1C(=O)[C@H](CC1CC1)NC(=O)C(=O)Nc1ccnc(C(F)(F)F)c1)C(=O)Nc1ccccc12 [Example 176] | – | < 100 | –
32 | CC(C)(C)C[C@H](NC(=O)C(=O)Nc1ccncc1C(F)(F)F)C(=O)N1C[C@]2(C[C@H]1C#N)C(=O)Nc1ccccc12 [Example 177] | – | < 100 | –
33 | CC(C)(C)C[C@H](NC(=O)C(=O)C1CC1)C(=O)N1C[C@]2(C[C@H]1C#N)C(=O)Nc1ccccc12 [Example 178] | – | 100 to 1000 | –
34 | CC(C)(C)C[C@H](NC(=O)C(=O)OC(C)(C)C)C(=O)N1C[C@]2(C[C@H]1C#N)C(=O)Nc1ccccc12 [Example 188] | – | 100 to 1000 | –
35 | CC(C)(C)C[C@H](NC(=O)C(=O)OCc1ccccc1)C(=O)N1C[C@]2(C[C@H]1C#N)C(=O)Nc1ccccc12 [Example 189] | – | > 1000 | –
36 | N#C[C@@H]1C[C@@]2(CN1C(=O)[C@H](CC1CC1)NC(=O)C(=O)Nc1c(Cl)cccc1C(F)(F)F)C(=O)Nc1ccccc12 [Example 194] | – | < 100 | –
37 | CC(C)(C)C[C@H](NC(=O)C(=O)Nc1ccccc1C(F)(F)F)C(=O)N1C[C@]2(C[C@H]1C#N)C(=O)Nc1ccccc12 [Example 195] | – | < 100 | –
38 | CC(C)(C)C[C@H](NC(=O)C(=O)Nc1c(F)cccc1C(F)(F)F)C(=O)N1C[C@]2(C[C@H]1C#N)C(=O)Nc1ccccc12 [Example 196] | – | < 100 | –
39 | CC(C)(C)C[C@H](NC(=O)C(=O)Nc1c(Cl)cccc1C(F)(F)F)C(=O)N1C[C@]2(C[C@H]1C#N)C(=O)Nc1ccccc12 [Example 197] | – | < 100 | –
40 | CN(C(=O)C(=O)Nc1ccc(C(F)(F)F)cc1C(F)(F)F)[C@@H](CC1CC1)C(=O)N1C[C@]2(C[C@H]1C#N)C(=O)Nc1ccccc12 [Example 198] | – | – | < 100
41 | N#C[C@@H]1C[C@@]2(CN1C(=O)[C@H](CC1CC1)NC(=O)C(=O)Nc1ccc(C(F)(F)F)cc1C(F)(F)F)C(=O)Nc1ccccc12 [Example 199] | – | < 100 | –
42 | N#C[C@@H]1C[C@@]2(CN1C(=O)[C@H](CC1CC1)NC(=O)C(=O)Nc1c(F)cccc1C(F)(F)F)C(=O)Nc1ccccc12 [Example 200] | – | < 100 | –
43 | Cc1cccc(C)c1NC(=O)C(=O)N[C@@H](CC(C)C)C(=O)N1C[C@]2(C[C@H]1C#N)C(=O)Nc1ccccc12 [Example 201] | – | < 100 | –
44 | CCCC[C@H](NC(=O)C(=O)Nc1c(C)cccc1C)C(=O)N1C[C@]2(C[C@H]1C#N)C(=O)Nc1ccccc12 [Example 202] | – | < 100 | –
45 | Cc1cccc(C)c1NC(=O)C(=O)N[C@@H](Cc1ccccc1)C(=O)N1C[C@]2(C[C@H]1C#N)C(=O)Nc1ccccc12 [Example 203] | – | < 100 | –
46 | CC(C)(C)C[C@H](NC(=O)C(=O)Nc1c(Cl)cc(F)cc1Cl)C(=O)N1C[C@]2(C[C@H]1C#N)C(=O)Nc1ccccc12 [Example 204] | – | < 100 | –
47 | N#C[C@@H]1C[C@@]2(CN1C(=O)[C@H](CC1CC1)NC(=O)C(=O)Nc1c(Cl)cc(Cl)cc1C(F)(F)F)C(=O)Nc1ccccc12 [Example 205] | – | < 100 | –
48 | N#C[C@@H]1C[C@@]2(CN1C(=O)[C@H](CC1CC1)NC(=O)C(=O)Nc1c(C(F)(F)F)cncc1C(F)(F)F)C(=O)Nc1ccccc12 [Example 206] | – | < 100 | –
49 | CC(C)(C)C[C@H](NC(=O)C(=O)Nc1c(C(F)(F)F)cncc1C(F)(F)F)C(=O)N1C[C@]2(C[C@H]1C#N)C(=O)Nc1ccccc12 [Example 207] | – | < 100 | –
50 | N#C[C@@H]1C[C@@]2(CN1C(=O)[C@H](CC1CC1)NC(=O)C(=O)Nc1c(C(F)(F)F)cccc1C(F)(F)F)C(=O)Nc1ccccc12 [Example 208] | – | < 100 | –
51 | N#C[C@@H]1C[C@@]2(CN1C(=O)[C@H](CC1CC1)NC(=O)C(=O)Nc1c(Cl)cc(F)cc1C(F)(F)F)C(=O)Nc1ccccc12 [Example 209] | – | < 100 | –
52 | CC(C)(C)C[C@H](NC(=O)C(=O)Nc1c(C(F)(F)F)ccc(Cl)c1Cl)C(=O)N1C[C@]2(C[C@H]1C#N)C(=O)Nc1ccccc12 [Example 210] | – | < 100 | –
